Molecular target: T1, Thymidylate kinase (Mycobacterium tuberculosis, UniProt P9WKE1)
T1 sequence (P9WKE1 whole entry): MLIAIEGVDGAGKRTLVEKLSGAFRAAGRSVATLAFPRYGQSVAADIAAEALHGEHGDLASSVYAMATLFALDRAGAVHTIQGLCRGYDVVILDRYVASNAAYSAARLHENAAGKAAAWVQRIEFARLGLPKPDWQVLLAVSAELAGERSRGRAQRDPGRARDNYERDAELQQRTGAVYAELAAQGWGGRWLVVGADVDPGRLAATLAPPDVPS
Experiment: Inhibition of recombinant Mycobacterium tuberculosis TMPK overexpressed in Escherichia coli assessed as inhibition constant by spectrophotometric assay

SMILES: Cc1cn(C/C=C\CN2c3cccc4cccc(c34)S2(=O)=O)c(=O)[nH]c1=O
- Ki: 270 nM

From ChEMBL document CHEMBL5360529, “Pyrimidine derivatives with antitubercular activity” (Eur J Med Chem, 2023)
